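Step 1: Grow cells in 96-well plates. Step 2: Expose to compound for 48 hours at 5 concentrations. Step 3: Interpolate endpoints linearly; if unreached, use highest concentration. TGI marks complete inhibition of growth.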
Key:
Assay in all cases: inhibition of tumour cell growth, NCI panel, 48 h
KM12 colon = test system: KM12 colon
XF 498 CNS = test system: XF 498 CNS
OVCAR-5 ovarian = test system: OVCAR-5 ovarian
DLD-1 colon = test system: DLD-1 colon
SK-MEL-28 melanoma = test system: SK-MEL-28 melanoma
SNB-75 CNS = test system: SNB-75 CNS
NCI-H460 lung = test system: NCI-H460 lung
EKVX NSCLC = test system: EKVX NSCLC
IGROV1 ovarian = test system: IGROV1 ovarian
HOP-18 NSCLC = test system: HOP-18 NSCLC
SK-OV-3 ovarian = test system: SK-OV-3 ovarian
CCRF-CEM leukemia = test system: CCRF-CEM leukemia
RXF-631 renal = test system: RXF-631 renal
OVCAR-4 ovarian = test system: OVCAR-4 ovarian
K-562 leukemia = test system: K-562 leukemia
NCI-H226 lung = test system: NCI-H226 lung
HL-60(TB) leukemia = test system: HL-60(TB) leukemia
HCT-116 colon = test system: HCT-116 colon
HT29 colon = test system: HT29 colon
SF-295 CNS = test system: SF-295 CNS
UACC-257 melanoma = test system: UACC-257 melanoma
SNB-78 CNS = test system: SNB-78 CNS
HCT-15 colon = test system: HCT-15 colon
RPMI-8226 leukemia = test system: RPMI-8226 leukemia
COLO 205 colon = test system: COLO 205 colon
DMS 273 small cell lung = test system: DMS 273 small cell lung
M19-MEL melanoma = test system: M19-MEL melanoma
786-0 renal = test system: 786-0 renal
UACC-62 melanoma = test system: UACC-62 melanoma
SNB-19 CNS = test system: SNB-19 CNS
SR leukemia = test system: SR leukemia
SN12C renal = test system: SN12C renal
M14 melanoma = test system: M14 melanoma
U251 CNS = test system: U251 CNS
OVCAR-3 ovarian = test system: OVCAR-3 ovarian
MOLT-4 leukemia = test system: MOLT-4 leukemia
NCI-H522 lung = test system: NCI-H522 lung
MALME-3M melanoma = test system: MALME-3M melanoma
A549 NSCLC = test system: A549 NSCLC
SK-MEL-2 melanoma = test system: SK-MEL-2 melanoma
OVCAR-8 ovarian = test system: OVCAR-8 ovarian
UO-31 renal = test system: UO-31 renal
LXFL 529 NSCLC = test system: LXFL 529 NSCLC
A498 renal = test system: A498 renal
RXF 393 renal = test system: RXF 393 renal
SF-268 CNS = test system: SF-268 CNS
HOP-62 NSCLC = test system: HOP-62 NSCLC
HCC-2998 colon = test system: HCC-2998 colon
LOX IMVI melanoma = test system: LOX IMVI melanoma
NCI-H23 lung = test system: NCI-H23 lung
SW-620 colon = test system: SW-620 colon
CAKI-1 renal = test system: CAKI-1 renal
TK-10 renal = test system: TK-10 renal
KM20L2 colon = test system: KM20L2 colon
HOP-92 NSCLC = test system: HOP-92 NSCLC
ACHN renal = test system: ACHN renal
SK-MEL-5 melanoma = test system: SK-MEL-5 melanoma
SF-539 CNS = test system: SF-539 CNS
DMS 114 small cell lung = test system: DMS 114 small cell lung

Which TGI (KM12 colon) does the source give for `NNC(=O)C(=O)NN=C(C(Cl)(Cl)CO)C(Cl)(Cl)CO` here?
The TGI was greater than 100 µM.

And the TGI (XF 498 CNS)?
Its TGI is greater than 100 µM.

And the TGI (OVCAR-5 ovarian)?
The TGI was 92.2 µM.

What about the TGI (DLD-1 colon) of the same compound?
The TGI was 57.4 µM.

And the TGI (SK-MEL-28 melanoma)?
Its TGI is 97.9 µM.

What about the TGI (SNB-75 CNS) of the same compound?
The TGI was 86.8 µM.

What about the TGI (NCI-H460 lung) of the same compound?
The TGI was greater than 100 µM.

What about the TGI (EKVX NSCLC) of the same compound?
Its TGI is greater than 100 µM.

And the TGI (IGROV1 ovarian)?
The TGI was greater than 100 µM.

And the TGI (HOP-18 NSCLC)?
The TGI was greater than 100 µM.

What about the TGI (SK-OV-3 ovarian) of the same compound?
The TGI was greater than 100 µM.

And the TGI (CCRF-CEM leukemia)?
The TGI was 61.2 µM.

And the TGI (RXF-631 renal)?
Its TGI is 55.7 µM.

What about the TGI (OVCAR-4 ovarian) of the same compound?
Its TGI is greater than 100 µM.

And the TGI (K-562 leukemia)?
Its TGI is greater than 100 µM.

And the TGI (NCI-H226 lung)?
Its TGI is greater than 100 µM.

And the TGI (HL-60(TB) leukemia)?
The TGI was 69.6 µM.

And the TGI (HCT-116 colon)?
The TGI was 66.1 µM.

And the TGI (HT29 colon)?
The TGI was greater than 100 µM.

And the TGI (SF-295 CNS)?
Its TGI is greater than 100 µM.

What about the TGI (UACC-257 melanoma) of the same compound?
Its TGI is greater than 100 µM.

And the TGI (SNB-78 CNS)?
The TGI was greater than 100 µM.

What about the TGI (HCT-15 colon) of the same compound?
The TGI was 75.5 µM.

What about the TGI (RPMI-8226 leukemia) of the same compound?
The TGI was greater than 100 µM.

What about the TGI (COLO 205 colon) of the same compound?
The TGI was greater than 100 µM.

What about the TGI (DMS 273 small cell lung) of the same compound?
The TGI was greater than 100 µM.

What about the TGI (M19-MEL melanoma) of the same compound?
The TGI was 46.8 µM.

What about the TGI (786-0 renal) of the same compound?
Its TGI is greater than 100 µM.

And the TGI (UACC-62 melanoma)?
The TGI was greater than 100 µM.

What about the TGI (SNB-19 CNS) of the same compound?
The TGI was greater than 100 µM.

What about the TGI (SR leukemia) of the same compound?
Its TGI is 50.6 µM.

What about the TGI (SN12C renal) of the same compound?
Its TGI is greater than 100 µM.

And the TGI (M14 melanoma)?
Its TGI is 94 µM.

And the TGI (U251 CNS)?
The TGI was 53.2 µM.

And the TGI (OVCAR-3 ovarian)?
Its TGI is 68 µM.

And the TGI (MOLT-4 leukemia)?
Its TGI is 50.7 µM.

And the TGI (NCI-H522 lung)?
Its TGI is 25 µM.

And the TGI (MALME-3M melanoma)?
Its TGI is 44.4 µM.

And the TGI (A549 NSCLC)?
Its TGI is greater than 100 µM.

What about the TGI (SK-MEL-2 melanoma) of the same compound?
Its TGI is greater than 100 µM.

What about the TGI (OVCAR-8 ovarian) of the same compound?
The TGI was 57.9 µM.

And the TGI (UO-31 renal)?
Its TGI is greater than 100 µM.

And the TGI (LXFL 529 NSCLC)?
Its TGI is greater than 100 µM.

And the TGI (A498 renal)?
Its TGI is greater than 100 µM.

And the TGI (RXF 393 renal)?
The TGI was 72.7 µM.

What about the TGI (SF-268 CNS) of the same compound?
The TGI was greater than 100 µM.

What about the TGI (HOP-62 NSCLC) of the same compound?
The TGI was greater than 100 µM.

And the TGI (HCC-2998 colon)?
The TGI was greater than 100 µM.

And the TGI (LOX IMVI melanoma)?
Its TGI is 35.3 µM.

And the TGI (NCI-H23 lung)?
Its TGI is 92.9 µM.

What about the TGI (SW-620 colon) of the same compound?
Its TGI is 40.3 µM.

What about the TGI (CAKI-1 renal) of the same compound?
Its TGI is 97.4 µM.

What about the TGI (TK-10 renal) of the same compound?
The TGI was greater than 100 µM.

And the TGI (KM20L2 colon)?
Its TGI is greater than 100 µM.

And the TGI (HOP-92 NSCLC)?
The TGI was 83.7 µM.

What about the TGI (ACHN renal) of the same compound?
The TGI was greater than 100 µM.

What about the TGI (SK-MEL-5 melanoma) of the same compound?
The TGI was greater than 100 µM.

What about the TGI (SF-539 CNS) of the same compound?
The TGI was 61.2 µM.

How did the TGI (KM12 colon) turn out when `O=C1CC(c2ccc(Cl)cc2)=Nc2ccccc2N1` was run?
Its TGI is greater than 100 µM.

And the TGI (OVCAR-5 ovarian)?
The TGI was greater than 100 µM.

What about the TGI (DLD-1 colon) of the same compound?
The TGI was greater than 100 µM.

And the TGI (SK-MEL-28 melanoma)?
The TGI was greater than 100 µM.

What about the TGI (SNB-75 CNS) of the same compound?
The TGI was 50.2 µM.

And the TGI (NCI-H460 lung)?
Its TGI is greater than 100 µM.

And the TGI (EKVX NSCLC)?
The TGI was greater than 100 µM.

What about the TGI (IGROV1 ovarian) of the same compound?
The TGI was greater than 100 µM.

What about the TGI (HOP-18 NSCLC) of the same compound?
The TGI was greater than 100 µM.

What about the TGI (DMS 114 small cell lung) of the same compound?
Its TGI is greater than 100 µM.

What about the TGI (SK-OV-3 ovarian) of the same compound?
Its TGI is 97.3 µM.

And the TGI (CCRF-CEM leukemia)?
The TGI was 41.9 µM.

And the TGI (RXF-631 renal)?
Its TGI is greater than 100 µM.

What about the TGI (OVCAR-4 ovarian) of the same compound?
The TGI was greater than 100 µM.

What about the TGI (K-562 leukemia) of the same compound?
Its TGI is greater than 100 µM.

And the TGI (NCI-H226 lung)?
The TGI was greater than 100 µM.

And the TGI (HL-60(TB) leukemia)?
Its TGI is 57.6 µM.

What about the TGI (HCT-116 colon) of the same compound?
The TGI was 59.6 µM.

And the TGI (HT29 colon)?
Its TGI is greater than 100 µM.

And the TGI (SF-295 CNS)?
Its TGI is greater than 100 µM.

What about the TGI (UACC-257 melanoma) of the same compound?
The TGI was greater than 100 µM.

And the TGI (SNB-78 CNS)?
The TGI was greater than 100 µM.

And the TGI (HCT-15 colon)?
The TGI was greater than 100 µM.

And the TGI (COLO 205 colon)?
Its TGI is greater than 100 µM.

What about the TGI (DMS 273 small cell lung) of the same compound?
Its TGI is greater than 100 µM.

And the TGI (M19-MEL melanoma)?
Its TGI is greater than 100 µM.

What about the TGI (786-0 renal) of the same compound?
The TGI was greater than 100 µM.

What about the TGI (UACC-62 melanoma) of the same compound?
Its TGI is greater than 100 µM.

What about the TGI (SNB-19 CNS) of the same compound?
Its TGI is greater than 100 µM.

What about the TGI (SR leukemia) of the same compound?
The TGI was greater than 100 µM.

And the TGI (SN12C renal)?
Its TGI is greater than 100 µM.

What about the TGI (M14 melanoma) of the same compound?
The TGI was greater than 100 µM.

And the TGI (U251 CNS)?
Its TGI is 75.6 µM.

And the TGI (OVCAR-3 ovarian)?
The TGI was greater than 100 µM.

What about the TGI (MOLT-4 leukemia) of the same compound?
Its TGI is greater than 100 µM.

What about the TGI (NCI-H522 lung) of the same compound?
Its TGI is greater than 100 µM.

And the TGI (MALME-3M melanoma)?
Its TGI is greater than 100 µM.

What about the TGI (A549 NSCLC) of the same compound?
Its TGI is greater than 100 µM.

And the TGI (SK-MEL-2 melanoma)?
The TGI was greater than 100 µM.

And the TGI (OVCAR-8 ovarian)?
Its TGI is 76.6 µM.

And the TGI (UO-31 renal)?
The TGI was greater than 100 µM.

What about the TGI (LXFL 529 NSCLC) of the same compound?
Its TGI is greater than 100 µM.

And the TGI (A498 renal)?
The TGI was greater than 100 µM.

What about the TGI (RXF 393 renal) of the same compound?
The TGI was 61.4 µM.

And the TGI (SF-268 CNS)?
The TGI was greater than 100 µM.

And the TGI (HOP-62 NSCLC)?
The TGI was greater than 100 µM.

And the TGI (HCC-2998 colon)?
Its TGI is greater than 100 µM.

What about the TGI (LOX IMVI melanoma) of the same compound?
Its TGI is 58.8 µM.

What about the TGI (NCI-H23 lung) of the same compound?
Its TGI is greater than 100 µM.

What about the TGI (SW-620 colon) of the same compound?
Its TGI is 47.9 µM.

What about the TGI (CAKI-1 renal) of the same compound?
The TGI was greater than 100 µM.

What about the TGI (TK-10 renal) of the same compound?
The TGI was greater than 100 µM.

What about the TGI (KM20L2 colon) of the same compound?
The TGI was greater than 100 µM.

And the TGI (HOP-92 NSCLC)?
Its TGI is 71.1 µM.

And the TGI (ACHN renal)?
Its TGI is greater than 100 µM.

What about the TGI (SK-MEL-5 melanoma) of the same compound?
Its TGI is greater than 100 µM.

What about the TGI (SF-539 CNS) of the same compound?
The TGI was greater than 100 µM.
